From paper PMC7917093, “Multiomics-based dissection of citrus flavonoid metabolism using a Citrus reticulata × Poncirus trifoliata population” (Horticulture Research, 2021) come the findings set out here.

Each structure is given as a SMILES string.

Test [1] has as its system T1, CitF3H (P. trifoliata allele).
T1 construct: gene F3H; natural allele with five amino acid differences and one indel versus C. reticulata
Put plainly: LC-MS product assay, Michaelis-Menten fit. Type of test: biochemical, Citrus trifoliata. The following applies: 0-1000 μM naringenin; 2-oxoglutarate 10 mM, FeSO4 0.25 mM, ascorbate 10 mM; Tris-HCl pH 8.5; 35 °C.

For test [2], the system named is T2, CitF3H (C. reticulata allele).
T2 construct: gene F3H
Put plainly: LC-MS product assay, Michaelis-Menten fit. Type of test: biochemical, Citrus reticulata. The following applies: 0-1000 μM naringenin; 2-oxoglutarate 10 mM, FeSO4 0.25 mM, ascorbate 10 mM; Tris-HCl pH 8.5; 35 °C.

As usually defined, the Km is the substrate concentration at which the rate is half of its maximum. In the case of `O=C1C[C@@H](c2ccc(O)cc2)Oc2cc(O)cc(O)c21` [naringenin], the values for the Km in test [1] and in test [2] were 7.61 µM and 121 µM, respectively.
